Experimental data published in BindingDB's records for doi:10.1016/S0960-894X(97)10016-6 (1997).

Molecular target: T1, Progesterone receptor (Oryctolagus cuniculus, UniProt P06186)
T1 sequence (P06186 whole entry): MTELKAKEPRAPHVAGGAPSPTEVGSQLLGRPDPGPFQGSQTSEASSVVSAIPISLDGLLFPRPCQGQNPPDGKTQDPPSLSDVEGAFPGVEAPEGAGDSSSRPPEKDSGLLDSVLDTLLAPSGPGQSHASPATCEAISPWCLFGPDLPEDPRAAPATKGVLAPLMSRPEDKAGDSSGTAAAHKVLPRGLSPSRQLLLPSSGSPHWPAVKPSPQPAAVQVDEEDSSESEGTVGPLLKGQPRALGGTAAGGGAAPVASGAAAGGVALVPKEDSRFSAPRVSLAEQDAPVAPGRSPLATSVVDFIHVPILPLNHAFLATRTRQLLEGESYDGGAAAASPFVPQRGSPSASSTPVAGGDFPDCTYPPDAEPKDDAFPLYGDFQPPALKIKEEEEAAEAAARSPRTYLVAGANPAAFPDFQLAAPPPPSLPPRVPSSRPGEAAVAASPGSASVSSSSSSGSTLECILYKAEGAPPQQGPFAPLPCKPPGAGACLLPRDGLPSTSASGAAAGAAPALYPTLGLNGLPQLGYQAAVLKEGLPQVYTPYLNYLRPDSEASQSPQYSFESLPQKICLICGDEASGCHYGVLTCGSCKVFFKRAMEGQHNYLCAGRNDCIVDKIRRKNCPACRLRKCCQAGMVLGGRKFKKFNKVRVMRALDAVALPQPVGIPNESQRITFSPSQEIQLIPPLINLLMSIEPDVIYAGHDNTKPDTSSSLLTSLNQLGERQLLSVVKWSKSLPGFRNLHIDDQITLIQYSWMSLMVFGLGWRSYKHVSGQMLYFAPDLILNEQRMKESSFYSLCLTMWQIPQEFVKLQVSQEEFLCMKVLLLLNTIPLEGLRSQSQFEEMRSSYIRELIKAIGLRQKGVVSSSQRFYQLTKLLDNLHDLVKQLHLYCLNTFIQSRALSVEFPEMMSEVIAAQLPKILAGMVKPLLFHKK
Assay: ChEBML_159701
Excerpt: Binding affinity determined by ability to displace [3H]R5020 radioligand using uterine progesterone receptor obtained from estrogen-primed rabbit

Row | SMILES | IC50 [µM]
1 | O=C(NNCC1=NN(c2ccc(F)cc2)C2C(Cc3cccc4ccccc34)CCCC12)c1ccccc1 (configuration not stated) | > 10
2 | O=S(=O)(NNCC1=NN(c2ccc(F)cc2)C2C(Cc3cccc4ccccc34)CCCC12)c1ccccc1 (configuration not stated) [1-(4-Fluoro-phenyl)-3-(N'-[(E)-methylene]benzenesulfonohydrazide)-7-naphthalen-1-ylmethyl-octahydro-indazole] | > 10
